Reference: US8158389B2, “Products and methods for in vivo secretion of monatin” (priority 2005, dated 2012)

Test system: E. coli MG1655
Experiment: Monatin excretion with 2.5 mM sodium decanoate, E. coli MG1655 strains with pUC19, robA or ramA (30, 48 h)
Type: cell-based, Escherichia coli
Description: The strains used for the experiment included E. coli MG1655 : : aspC/proA/pProNdeDel together with the robA gene from E. coli cloned into the pUC19 vector. The control strain was E. coli MG1655 : : aspC/proA/pProNde along with the pUC19 vector. The robA gene was amplified from E. coli W3110 using primers 5′[…]3′ (SEQ ID NO. 20) and 5′[…]3′ (SEQ ID NO. 21), which introduced SalI and BamHI sites at the end of the amplified fragment. The PCR fragment was cloned between the SalI and BamHI sites of the vector pUC19 (GenBank/EMBL accession number L09137). For inoculum, the E. coli strains were grown overnight at 37° C. and 250 rpm in Luria-Bertani (“LB”) medium with 100 μg/mL ampicillin and 50 μg/mL kanamycin.
For the experimental treatments, Trp-1+glucose medium, a minimal medium that has been used for increased production of tryptophan in E. coli cells (Zeman et al. Folia Microbiol. 35:200-204, (1990)), was prepared as follows. To 800 mL nanopure water the following reagents were added: 2 g (NH4)2SO4 and 13.6 g KH2PO4. The pH was adjusted to 7.0, the volume was increased to 948 mL, and the medium was autoclaved. Following sterilization, 0.2 g MgSO4.7H2O, 0.01 g CaCl2.2H2O, and 0.5 mg FeSO4.7H2O were ad to the medium in a 1.8 mL volume followed by addition of 0.2 mL of Neidhardt's micronutrient solution. Neidhardt F. C., et al., “Culture medium for Enterobacteria,” J. Bacteriol. 119:736-746, (1974). Neidhardt's medium includes (per liter): 0.18 g (NH4)6(MO7)24-4H2O, 1.24 g H3BO3, 0.36 g CoCl2.6H2O, 0.12 g CuSO4 (anhydrous), 0.8 g MnCl2.4H2O, and 0.14 g ZnSO4.7H2O. A 50% glucose solution was prepared separately and sterile-filtered. Forty mL of glucose solution and 10 mL of 1 M 3-Morpholinopropanesulfonic acid (“MOPS”) buffer were added to the base medium (950 mL) for a 1 L final volume.
Conditions for the treatments included 250 rpm agitation throughout and 37° C. up to induction, then, 30° C. following induction. At 0.30-0.50 OD600 nm, induction of the plasmid genes was initiated. At induction, 1.0 mM IPTG, 0.5% L-arabinose, 0.5 mM pyridoxine hydrochloride, and 0.2 mLs of Balch's vitamins were added. Additions of 10 g/L L-tryptophan, 10 g/L sodium pyruvate, 0.04 mM pyridoxal-5′-phosphate (“PLP”) and 0.2% Tween® 20 (polyoxyethylene 20-sorbitan monolaurate) were made 3 hours following induction. Some treatments included 2.5 mM sodium decanoate addition at 3 hours following induction.
The strains used for the experiment included E. coli MG1655 : : aspC/proA/pProNdeDel together with the ramA gene from Enterobacter aerogenes cloned into the pUC19 vector (GenBank/EMBL accession number L09137). The control strain was E. coli MG1655 : : aspC/proA/pProNde along with the pUC19 vector. The ramA gene was amplified from E. aerogenes ATCC 13048 by using primers, 5′[…]3′ (SEQ ID NO. 22) and 5′[…]3′ (SEQ ID NO. 23), which introduced Sal I and BamH I sites at the end of the amplified fragment. The PCR fragment was cloned between the Sal I and BamH I sites of the vector pUC19 (GenBank/EMBL accession number L09137). For inoculum, the E. coli strains were grown overnight at 37° C. and 250 rpm in Luria-Bertani (“LB”) medium with 100 μg/mL ampicillin and 50 μg/mL kanamycin.
For the experimental treatments, Trp-1+glucose medium, a minimal medium that has been used for increased production of tryptophan in E. coli cells (Zeman et al. Folia Microbiol. 35:200-204, (1990)), was prepared as follows. To 800 mL nanopure water the following reagents were added: 2 g (NH4)2SO4 and 13.6 g KU2PO4. The pH was adjusted to 7.0, the volume was increased to 948 mL, and the medium was autoclaved. Following sterilization, 0.2 g MgSO4.7H2O, 0.01 g CaCl2.2H2O, and 0.5 mg FeSO4.7H2O were to the medium in a 1.8 mL volume followed by addition of 0.2 mL of Neidhardt's micronutrient solution. Neidhardt F. C., et al., “Culture medium for Enterobacteria,” J. Bacteriol. 119:736-746, (1974). […]

[1] = E. coli MG1655::aspC proA pProNdedel pUC19 (control), n = 2
[2] = E. coli MG1655::aspC proA pProNdedel, ramA pUC19, n = 2
[3] = E. coli MG1655::aspC proA pProNdedel, robA pUC19, n = 2

CCCCCCCCCC(=O)[O-].[Na+] [sodium decanoate] was tested, and the “Monatin/dcw, 30 hours” value [1] was 4.66 mg/g, the “Monatin/dcw, 48 hours” value [1] was 4.31 mg/g and the “Monatin/dcw, 30 hours” value [2] was 3.69 mg/g. For the same compound, the “Monatin/dcw, 48 hours” value [2] was 13.90 mg/g, the “Monatin/dcw, 30 hours” value [3] was 6.91 mg/g and the “Monatin/dcw, 48 hours” value [3] was 25.62 mg/g.
